According to PMC12517324, “Hyperagonism of a Vitamin D Receptor Agonist/Histone Deacetylase Inhibitor Hybrid Molecule” (Journal of Medicinal Chemistry, 2025):

Key:
HDAC 10 = molecular target: T1, HDAC 10 (Homo sapiens, UniProt Q969S8); experiment: HDAC 10 inhibition (Reaction Biology, 10-dose IC50)
T1 sequence (Q969S8 1-669): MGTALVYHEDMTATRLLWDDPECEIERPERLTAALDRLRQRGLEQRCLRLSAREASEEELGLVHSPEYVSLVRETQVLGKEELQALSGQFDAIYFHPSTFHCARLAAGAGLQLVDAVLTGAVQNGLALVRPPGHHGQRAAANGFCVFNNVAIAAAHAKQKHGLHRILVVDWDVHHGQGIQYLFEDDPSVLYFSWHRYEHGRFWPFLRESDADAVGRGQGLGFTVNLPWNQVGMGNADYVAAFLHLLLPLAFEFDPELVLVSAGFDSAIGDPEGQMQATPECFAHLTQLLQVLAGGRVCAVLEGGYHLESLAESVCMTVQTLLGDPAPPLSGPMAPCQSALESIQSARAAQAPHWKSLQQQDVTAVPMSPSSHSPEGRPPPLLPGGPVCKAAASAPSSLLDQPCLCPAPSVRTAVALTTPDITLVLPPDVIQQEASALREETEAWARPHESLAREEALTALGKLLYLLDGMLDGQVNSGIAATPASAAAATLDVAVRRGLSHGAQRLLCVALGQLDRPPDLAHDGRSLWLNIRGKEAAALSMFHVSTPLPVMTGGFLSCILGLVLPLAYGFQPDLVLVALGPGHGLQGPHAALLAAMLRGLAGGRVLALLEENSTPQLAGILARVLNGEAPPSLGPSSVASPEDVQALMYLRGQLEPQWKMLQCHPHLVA

[1] = tested on: Cyp24a1 gene in B16–F10 melanoma cells; experiment: Cyp24a1 gene induction (RT-qPCR) as test of VDR agonism; type: cell-based, mouse; details: hybrids 10 μM, 1,25D and SAHA 100 nM, 24 h
B16–F10 cells = experiment: RNaseq gene expression profiling; type: cell-based, mouse; details: 10 μM, 24 h
Description: AC-340 superinduced CYP24A1 expression in all cell lines tested, and ZG-126 appeared to be a hyperagonist in SK-MEL-28 cells. […] AC-340 treatment produced 3 times more differentially expressed genes (DEGs) than AM-193, with ZG-126 producing an intermediate number (Figure A). […] The varying effects of each treatment on the numbers of regulated genes and the fold changes observed are reflected in plots of log-fold changes and volcano plots (Figure S3B).
A quality control was performed before sequencing in paired-end at 50 M reads by Illumina NovaSeq 6000 S4 PE100. After sequencing, the FASTQ files were sent to us and all downstream analysis were performed on Galaxy (Galaxy (usegalaxy.org)). First, trimmomatic tool was used to remove the adapters from the reads. Then, using the alignment tool, HISAT2, the reads were mapped to the mouse genome. In the next step, the counted reads were annotated and finally the list of differentially expressed genes (DEGs) for each treatment was obtained using the preinstalled R package called Limma.

[2] = tested on: VDR target genes in B16-F10 cells; experiment: RT-qPCR of selected VDR target genes (RNaseq validation); type: cell-based, mouse; details: B16-F10, 24 h, compared with other treatments
Excerpt: The enhanced response of B16–F10 cells to AC-340 likely reflects the VDR hyperagonist activity observed in Cyp24a1 induction assay (Figure A). […] In 49 of 50 cases, AC-340 superinduced their expression, often several fold (Figure C), consistent with AC-340 being a broad hyperagonist of 1,25D-induced genes.
RNAseq data validation by RT-qPCR of selected VDR target genes in B16-F10
Fig. S4. Validation of the RNAseq data by RT-qPCR.

VDR = tested on: VDR; set-up: method as in earlier work; details: efficacious and well-tolerated dose; ref (ref); cited from earlier work
[3] = tested on: CYP24A1 in SK-MEL-28 cells; experiment: CYP24A1 induction (RT-qPCR), extended dose–response in SK-MEL-28 cells; details: SK-MEL-28 cells, 10 μM

Row | IC50 (HDAC 10) | SMILES | Cyp24a1 gene expression induction [1] | logFC Btn1a1 (B16–F10 cells) | logFC Cyp24a1 (B16–F10 cells) | logFC Elfn1 (B16–F10 cells) | logFC Nccrp1 (B16–F10 cells) | logFC Tnni1 (B16–F10 cells) | Prelp gene induction [2] | Tgm2 gene induction [2] | VDR agonist activity in vivo (VDR) | CYP24A1 induction (VDR hyperagonism) [3]
1 | 4.52 nM | Cn1cc(CNCC2CCN(c3ncc(C(=O)NO)cn3)CC2)c2ccccc21 [Quisinostat] | – | – | – | – | – | – | – | – | – | –
2 | – | CCC(CC)(c1ccc(C(=O)NCCCCC(=O)NO)cc1)c1ccc(OCC(O)C(C)(C)C)c(C)n1 (centres unmarked) [ZG-126] | more efficacious than 1,25D (and AM-193) | 8.367 | 8.537 | 7.8172 | 7.976 | 9.358 | most efficacious inducer | most efficacious inducer | displays VDR agonist activity in vivo | displayed hyperagonism
